Where two headings read alike, the source gives them in different places.
Experiments:
[1] = Method: (§1) Introduction. The remineralisation potential of three formulations: deionised water, 1450 ppm fluoride solution from MFP and fluoride free BoostPaste MON-6 formulation were tested in a standard microindentation erosive lesion rehardening model as described above in example 3. The objective of this study was to ascertain if fluoride free Boostpaste MON-6 formulation has the potential to remineralise erosive lesions without the presence of fluoride.
Method. Twice a day for five days human enamel specimens with citric acid erosive lesions were brushed with the test formulations and incubated in artificial saliva (containing 1500 units/L of phosphatase) at 37° C. between treatments. The microhardness of the enamel specimens was remeasured each day for five days and the degree of re-mineralization calculated using the boundary conditions of 100% mineralized for the hardness of the initial enamel before the formation of the lesions and 0% mineralization for the hardness of the enamel after the formation of the lesion.

[2] = Further stain prevention cycling study (Example 8); parameters: species or system bovine
Method: Introduction. A cycling staining procedure as described in example 6 was again used to measure the staining prevention when bovine enamel was subjected to a cycling staining procedure after being treated with one of four formulations: ToothBoost MOL-6, a 3% solution of OPN pH adjusted to 7.0, a 1.25% solution of sodium bicarbonate pH adjusted to 7.0 and deionised water. The aim of the study was to rank the formulations in terms of their stain prevention capability when bovine enamel was treated with a combination of tea stain and chlorhexidine.
Method. The enamel cores were treated by spraying the assigned treatment onto the enamel face using a single actuation of the ToothBoost spray pack and incubating for two minutes.
The enamel specimens were then cycled between a 1% chlorhexidine solution, a solution of strong tea and artificial saliva for approximately ten cycles per day. At the end of the day of cycling the enamel was rinsed and allowed to dry before the enamel colour measured. The cycling continued for a total of three days of cycling. From the L*a*b* measurements the ΔE76 (change in perceivable colour) was calculated. ΔE76=1 is the smallest perceivable colour change that can be observed.
The cycling continued every day for three days.
After each set of cycling the enamel was rinsed with deionised water and allowed to dry before colour measurements were made. Fresh solutions were made at the start of each set of cycles.
Results. The change in colour of the enamel was calculated from the L*a*b* values where the ΔE76 (The difference between enamel colour before and after cycling) was determined from equation 1: […]

[3] = Vickers microindentation erosive lesion rehardening model, MOK vs MOL (Example 3); conditions: bovine enamel, treated twice a day for seven days, spray approx 0.1 ml, N=8
Method: Introduction. […] The objective of the study was to ascertain if formulation development for ToothBoost retained remineralizing efficacy. Four treatment groups were placed in the study: 1. MOK (legacy formulation), 2. Phosphate free ToothBoost MOL (development formulation), 3. 500 ppm fluoride solution made from MFP, 4. Deionised water. N=8 enamel specimens per treatment group.
Enamel blocks are prepared from sound disease free human molars or bovine incisors and mounted in 25 mm diameter resin discs. After curing the underside of the disc is flattened using p400 grit paper. […]
The discs are then rinsed under deionised water and sonicated for five minutes. Initial microhardness of the sound enamel is measured by microindentation to determine that the enamel is sufficiently mineralized for the purpose of the study and to record the microhardness of the sound enamel. […]
Method. […] The microhardness of the de-mineralized enamel is then measured and the enamel discs organised so that each group have a similar range of microhardness values.
The citric acid eroded bovine enamel specimens were then treated twice a day for seven days. […] At the end of day seven, the enamel specimens were rinsed in deionised water, dried and the micro hardness of the enamel was measured by Vickers microindentation to determine the extent of the re-mineralization of the enamel lesions. […]

[4] = remark: listed apart in the source
Method: as §1, with “500” for “1450”, “Toothboost MOL-15” for “BoostPaste MON-6”, “model,” for “model”, “Toothboost MOL-15” for “Boostpaste MON-6”
Method. Five times a day for five days human enamel specimens with citric acid erosive lesions were sprayed with 0.15 g of the test formulations and incubated in artificial saliva (containing 1500 units/L of phosphatase) at 37° C. between treatments. The microhardness of the enamel specimens was remeasured after five days and the degree of re-mineralization calculated using the boundary conditions of 100% mineralized for the hardness of the initial enamel before the formation of the lesions and 0% mineralization for the hardness of the enamel after the formation of the lesion.

[5] = after the second round of treatments

F [1450 ppm fluoride solution, monofluorophosphate]
remineralisation of erosive lesions, statistical comparison ([1]; brushed twice a day for five days): statistically better than deionised water
calculated remineralisation ([1]; human enamel, brushed twice a day, after five days of treatment, N=10): over 23%

OPN solution: 3% solution of OPN (osteopontin) pH adjusted to 7.0
protection from staining (ΔE76), statistical comparison ([2]; after the first set of treatments): statistically more protection than sodium bicarbonate solution
protection from staining (ΔE76), statistical comparison [2, 5]: statistically the same
protection from staining (ΔE76), statistical comparison ([2]; after the third round of treatments): statistically the same
protection from staining (ΔE76), statistical comparison ([2]; after the third round of treatments, listed as OPN): statistically better than sodium bicarbonate

F [500 ppm fluoride solution, monofluorophosphate]
remineralisation of erosive lesions (Vickers microhardness), statistical comparison [3]: statistically (probability <0.05) better than deionised water
remineralisation of erosive enamel lesions, statistical analysis ([4]; after 5 days of treatment): significant remineralisation
calculated remineralisation ([4]; human enamel, sprayed 0.15 g five times a day for five days, 100% = initial enamel hardness, 0% = after lesion): over 25%

O=C([O-])O.[Na+] [sodium bicarbonate]
protection from staining (ΔE76), statistical comparison [2, 5]: statistically the same

Source: patent publication US20230255872A1, “ORAL CARE COMPOSITIONS AND METHODS” (DENTHERAPY LTD, priority 2020, published 2023)
